Consider 11 compounds from patent US20120322819A1, “COMPOUND CONTAINING A NOVEL 4-ALKOXYPYRIMIDINE STRUCTURE AND MEDICINE CONTAINING SAME” (KOWA COMPANY, LTD., priority 2010, published 2012).

Assay [1] deals with T1, angiotensin II type 1 receptor (Oryctolagus cuniculus, UniProt P34976).
T1 construct: By using a specimen of isolated rabbit blood vessels; from tissue; host or cells: rabbit thoracic aorta ring (New Zealand White, male)
T1 sequence (P34976 1-359): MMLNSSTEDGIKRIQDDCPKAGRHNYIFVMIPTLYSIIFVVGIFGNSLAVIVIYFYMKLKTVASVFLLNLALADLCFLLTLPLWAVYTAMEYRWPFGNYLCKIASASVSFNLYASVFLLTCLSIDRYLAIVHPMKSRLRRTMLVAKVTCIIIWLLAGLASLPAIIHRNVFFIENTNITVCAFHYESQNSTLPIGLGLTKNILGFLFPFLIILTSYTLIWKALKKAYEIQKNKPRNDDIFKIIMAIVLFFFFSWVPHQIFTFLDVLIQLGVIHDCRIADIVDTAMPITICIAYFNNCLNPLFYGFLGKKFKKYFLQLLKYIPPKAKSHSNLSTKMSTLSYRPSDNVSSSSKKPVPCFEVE
The assay can be described thus: Angiotensin II antagonistic activity in isolated rabbit blood vessels (angiotensin II-induced contraction of thoracic aorta ring). As to conditions: angiotensin II (10 nM)-induced contraction, compound 1 nmol/L to 10 μmol/L, 37° C., read-out: IC50 (50% inhibition concentration of angiotensin II-induced contraction). From the text: Angiotensin II Antagonistic Activity in Isolated Rabbit Blood Vessels
By using a specimen of isolated rabbit blood vessels, antagonistic activity of the compounds of the invention against angiotensin II type 1 receptor was estimated from a dose-response curve of angiotensin II-induced blood vessel contraction. Specifically, the specimen of thoracic aorta ring of a rabbit (New Zealand White: male, 2.4 to 3.0 kg) was suspended in a magnus bath filled with Krebs-Henseleite buffer (composition: 118 mM NaCl, 4.7 mM KCl, 2.55 mM CaCl2, 1.18 mM MgSO4, 1.18 mM KH2PO4, 24.88 mM NaHCO3, and 11.1 mM D-glucose), and angiotensin II (10 nM)-induced contraction was obtained in the presence of the compounds of each example (1 nmol/L to 10 μmol/L). During the measurement, the inside temperature of the magnus bath was maintained at 37° C. and the bath was continuously ventilated with a sufficient amount of mixed gas (95% O2 and 5% CO2). The angiotensin II-induced contraction was converted into a relative value (%) that is based on the angiotensin II (10 nM)—induced contraction in the absence of the compounds of each example. From the concentration-response curve obtained therefrom, 50% inhibition concentration (IC50 value) was calculated by using SAS Preclinical Package Ver 5.0 (trade name, manufactured by SAS institute Japan Co., Tokyo, Japan), which is a statistical analysis program.

A further assay has as its target T2, human PPARγ2 (Homo sapiens, UniProt P37231).
T2 construct: the amino acids 182 to 505 of human PPARγ2; expressed in transfected cells; host or cells: COST cells (so in the source)
T2 sequence (P37231 182-505): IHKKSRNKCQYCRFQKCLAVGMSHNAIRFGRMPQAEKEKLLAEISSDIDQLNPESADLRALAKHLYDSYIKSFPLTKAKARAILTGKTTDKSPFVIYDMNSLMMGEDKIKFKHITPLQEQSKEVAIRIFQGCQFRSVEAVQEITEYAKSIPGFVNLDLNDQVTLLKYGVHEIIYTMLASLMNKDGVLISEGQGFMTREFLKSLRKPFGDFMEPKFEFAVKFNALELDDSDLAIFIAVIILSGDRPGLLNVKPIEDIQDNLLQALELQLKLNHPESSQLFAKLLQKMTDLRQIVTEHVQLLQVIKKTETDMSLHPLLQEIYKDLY
The assay can be described thus: PPARγ activation activity, Gal4-PPARγ2 LBD chimera luciferase transfection assay in COST cells. In kind it is cell-based. As to conditions: Gal4 (aa 1-147)/human PPARγ2 LBD (aa 182-505) chimera, luciferase reporter, 16 hours, rosiglitazone (3 to 10 μmol/L) = 100%, read-out: EC50 (50% effective concentration, PPARγ activation). The procedure:
PPARγ Activation Activity
The agonistic activity of the compounds of the invention on PPARγ was measured based on the transfection assay using COST cells (DS Pharma Biomedical Co., Ltd., Osaka, Japan), which are the cell line derived from the kidney of the African green monkey. COST cells were cultured under 5% CO2 concentration, and DMEM medium containing 10% fetal bovine serum, glutamic acid, and antibiotics was used as a medium.
As an expression vector, a chimera in which DNA binding domain of Ga14, which is a yeast transcription factor, and ligand binding domain of human PPARγ2 are fused, i.e., a fused product between the amino acids 1 to 147 of Gal4 transcription factor and the amino acids 182 to 505 of human PPARγ2, was used. Furthermore, as a reporter vector, a firefly luciferase containing five copies of Gal4 recognition sequence in the promoter region was used. Plasmid transfection to the cells was performed according to a method which uses jetPEI (trade name, manufactured by Funakoshi Co., Ltd., Tokyo, Japan). Furthermore, β-galactosidase expression vector was employed as an internal standard.
After the transfection of the cells, the medium was replaced with a DMEM medium (containing 1% serum) added with the test compound, and the cells were further cultured for 16 hours. After that, the luciferase activity and β-galactosidase activity in the cell lysis solution were measured.
For the present test, dimethylsulfoxide (DMSO) was used for dissolution and dilution of the test compounds, and during the cell treatment, the DMSO concentration in DMEM medium (containing 1% serum) was adjusted to 0.1%. As a positive compound, rosiglitazone (trade name, manufactured by ALEXIS Corporation, Switzerland) was used. The percentage (%) of the luciferase activity of the each test compound (1 to 30 μmol/L) was calculated when the luciferase activity of rosiglitazone (3 to 10 μmol/L) is 100% and the luciferase activity in the absence of the test compound is 0%. The 50% effective concentration of the test compound (EC50, 50% effect concentration) was calculated by using SAS Preclinical Package Ver 5.0 (trade name, manufactured by SAS institute Japan Co., Tokyo, Japan), which is a statistical analysis program.
(A reporter such as luciferase makes a cellular process visible.)

Structures are written as SMILES.

With `CCCCc1nc(C)nc(OCC(=O)OCC)c1Cc1ccc(-c2ccccc2-c2noc(=O)[nH]2)cc1` [Example 1, ethyl 2-{{6-butyl-2-methyl-5-{[2′-(5-oxo-4,5-dihydro-1,2,4-oxadiazol-3-yl)-[1,1′-biphenyl]-4-yl]methyl}pyrimidin-4-yl}oxy}acetate], the IC50 in assay [1] amounted to 810 nM. Besides, the EC50 at human PPARγ2 amounted to 1050 nM.
As to `CCCCc1nc(C)nc(OCC(=O)O)c1Cc1ccc(-c2ccccc2-c2noc(=O)[nH]2)cc1` [Example 2, 2-{{6-butyl-2-methyl-5-{[2′-(5-oxo-4,5-dihydro-1,2,4-oxadiazol-3-yl)-[1,1′-biphenyl]-4-yl]methyl}pyrimidin-4-yl}oxy}acetic acid], the IC50 in assay [1] is 230 nM.
On the same count and under the same terms, the value for `CCCCc1nc(C)nc(OCC(=O)NCC)c1Cc1ccc(-c2ccccc2-c2noc(=O)[nH]2)cc1` [Example 4, 2-{{6-butyl-2-methyl-5-{[2′-(5-oxo-4,5-dihydro-1,2,4-oxadiazol-3-yl)-[1,1′-biphenyl]-4-yl]methyl}pyrimidin-4-yl}oxy}-N-ethylacetamide] was 290 nM; that for `CCCCc1nc(C)nc(OCC(=O)N(CC)CC)c1Cc1ccc(-c2ccccc2-c2noc(=O)[nH]2)cc1` [Example 5, 2-{{6-butyl-2-methyl-5-{[2′-(5-oxo-4,5-dihydro-1,2,4-oxadiazol-3-yl)-[1,1′-biphenyl]-4-yl]methyl}pyrimidin-4-yl}oxy}-N,N-diethylacetamide] was 60 nM.
Take `CCCCc1nc(C)nc(OCCCC(=O)OCC)c1Cc1ccc(-c2ccccc2-c2noc(=O)[nH]2)cc1` [Example 6, ethyl 4-{{6-butyl-2-methyl-5-{[2′-(5-oxo-4,5-dihydro-1,2,4-oxadiazol-3-yl)-[1,1′-biphenyl]-4-yl]methyl}pyrimidin-4-yl}oxy}butanoate]: the IC50 in assay [1] was 130 nM. Also, the EC50 on human PPARγ2 was 870 nM.
On the same counts, the results for `CCCCc1nc(C)nc(OCCO)c1Cc1ccc(-c2ccccc2-c2noc(=O)[nH]2)cc1` [Example 15, 3-{4′-{[4-butyl-6-(2-hydroxyethoxy)-2-methylpyrimidin-5-yl]methyl}-[1,1′-biphenyl]-2-yl}-1,2,4-oxadiazol-5(4H)-one] are 770 nM and 1320 nM.
On the same counts, the results for `CCCCc1nc(C)nc(OCC(C)=O)c1Cc1ccc(-c2ccccc2-c2noc(=O)[nH]2)cc1` [Example 22, 3-{4′-{[4-butyl-2-methyl-6-(2-oxopropoxy)pyrimidin-5-yl]methyl}-[1,1′-biphenyl]-2-yl}-1,2,4-oxadiazol-5(4H)-one] are 100 nM and 950 nM.
On the same counts, the results for `CCCCc1nc(C)nc(OC(C(=O)O)c2ccccc2)c1Cc1ccc(-c2ccccc2-c2noc(=O)[nH]2)cc1` (stereo not drawn) [Example 26, 2-{{6-butyl-2-methyl-5-{[2′-(5-oxo-4,5-dihydro-1,2,4-oxadiazol-3-yl)-[1,1-biphenyl]-4-yl]methyl}pyrimidin-4-yl}oxy}-2-phenylacetic acid] are 380 nM and 2920 nM.
Regarding `CCCCc1nc(C)nc(OC(Cc2ccccc2)C(=O)O)c1Cc1ccc(-c2ccccc2-c2noc(=O)[nH]2)cc1` (stereo not drawn) [Example 28, 2-{{6-butyl-2-methyl-5-{[2′-(5-oxo-4,5-dihydro-1,2,4-oxadiazol-3-yl)-[1,1′-biphenyl]-4-yl]methyl}pyrimidin-4-yl}oxy}-3-phenylpropionic acid], the IC50 in assay [1] stood at 640 nM.
Take `CCCCc1nc(C)nc(OCC(=O)N2CCCCC2)c1Cc1ccc(-c2ccccc2-c2noc(=O)[nH]2)cc1` [Example 30]: the IC50 in assay [1] was 230 nM. In addition, on human PPARγ2, the EC50 was 1210 nM.
In the same order, the values of `CCCCc1nc(C)nc(OCCOC)c1Cc1ccc(-c2ccccc2-c2noc(=O)[nH]2)cc1` [Example 33, 3-{4′-{[4-butyl-6-(2-methoxyethoxy)-2-methylpyrimidin-5-yl]methyl}-[1,1′-biphenyl]-2-yl}-1,2,4-oxadiazol-5(4H)-one] are 480 nM and 920 nM.
